Data as given in ChEMBL document CHEMBL1153321, “Approaches to the simultaneous inactivation of metallo- and serine-beta-lactamases” (Bioorg Med Chem Lett, 2009).

Tests used:
[1] = Inhibition of recombinant VIM-2
[2] = Inhibition of recombinant GIM-1

Row | Compound | IC50 [1] [µM] | IC50 [2] [µM]
1 | CC(=O)OCC1=C(C(=O)O)N2C(=O)/C(=N/O)[C@H]2SC1 | 10 | 15
2 | CC(=O)OCC1=C(C(=O)O)N2C(=O)[C@@H](NC=O)[C@H]2SC1 | 35 | 47
3 | CC(=O)OCC1=C(C(=O)O)N2C(=O)[C@@H](N(O)C=O)[C@H]2SC1 | 10 | 0.3
4 | CC(=O)OCC1=C(C(=O)O)N2C(=O)[C@@H](NO)[C@H]2SC1 | 9 | 2
5 | CC1=C(C(=O)O)N2C(=O)/C(=N/O)[C@H]2S(=O)(=O)C1 | 25 | > 500
6 | CC(=O)OCC1=C(C(=O)O)N2C(=O)/C(=N/O)[C@H]2S(=O)(=O)C1 | 270 | 170
7 | CC(=O)OCC1=C(C(=O)O)N2C(=O)[C@@H](N(O)C(=O)Cc3ccccc3)[C@H]2SC1 | 2 | 0.3
